Experimental findings from ChEMBL document CHEMBL1154072, “An efficient steroid pharmacophore-based strategy to identify new aromatase inhibitors” (Eur J Med Chem, 2009) are described below.

In series [1] the target is T1, Aromatase (Homo sapiens, UniProt P11511).
T1 sequence (P11511 whole entry): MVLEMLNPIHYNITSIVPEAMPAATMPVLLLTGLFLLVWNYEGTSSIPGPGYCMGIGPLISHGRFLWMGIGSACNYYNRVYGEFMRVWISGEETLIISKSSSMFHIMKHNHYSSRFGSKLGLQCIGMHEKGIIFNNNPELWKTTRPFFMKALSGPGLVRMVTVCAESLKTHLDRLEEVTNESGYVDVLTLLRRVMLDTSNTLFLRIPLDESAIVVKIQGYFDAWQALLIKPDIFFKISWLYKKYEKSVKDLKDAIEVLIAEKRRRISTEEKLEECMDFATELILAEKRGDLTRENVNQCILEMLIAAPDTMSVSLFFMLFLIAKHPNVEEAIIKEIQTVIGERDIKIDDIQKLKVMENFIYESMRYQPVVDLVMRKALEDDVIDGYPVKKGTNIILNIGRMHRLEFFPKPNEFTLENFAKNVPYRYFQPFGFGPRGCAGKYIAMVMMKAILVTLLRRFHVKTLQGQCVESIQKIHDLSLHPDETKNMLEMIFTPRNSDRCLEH
The experiment in a line: Inactivation of human placental aromatase assessed as residual activity at 7.5 uM after 12 mins in presence of 0.5 mM L-cysteine. Particulars: 0.2 h; call rule not given here.

Series [2] deals with T1, Aromatase. The experiment in a line: Inhibition of human placental aromatase assessed as conversion of [1-beta-3H]androstenedione to [1beta-3H]estrone after 20 mins by liquid scintillation counting.
Series [3] deals with T1, Aromatase. The experiment in a line: Competitive inhibition of human placental aromatase by Lineweaver-Burke plot analysis.
Series [4] concerns the target T1, Aromatase. The experiment in a line: Inhibition of human placental aromatase assessed as conversion of [1-beta-3H]androstenedione to […] at 100 uM after 20 mins by liquid scintillation counting. The settings on record: for inhibition (INH): 100 µM.
In series [5] the target is T1, Aromatase. Description: Inhibition of human placental aromatase assessed as conversion of [1-beta-3H]androstenedione to […] at 30 uM after 20 mins by liquid scintillation counting.

Molecules are shown by their SMILES.

In general, IC50 refers to the concentration needed to halve the response being measured. By Ki is commonly meant the dissociation constant of the complex between target and ligand, obtained from inhibition or displacement. High values mean a looser hold on the target, low ones a stronger hold on the target. As to `Cc1nc2c(cc1C#N)C(Nc1ccc(Cl)cc1)Oc1ccc([N+](=O)[O-])cc1-2` (centres undefined), on Aromatase [1], the outcome was Active. In addition, the IC50 at Aromatase [2] worked out at 678 nM. The Ki on Aromatase [3] is 385 nM. One may read the inhibition as the change of the read-out against control, counted positive when it falls. As to `CCOC(=O)C1=C(C)C2C=C(c3cccs3)CC(c3ccc(Cl)cc3)=C2OC1=O` (centres undefined), the inhibition at 100 µM on Aromatase [4] amounted to 26%. In the case of `C=C1C(=O)O[C@H]2C[C@@H](C)[C@@H]3CC(=O)OC[C@@]3(C)C[C@H]12`, the “inhibition (INH)” value at Aromatase [4] is listed as “Not Active”. As to `CCCCSC(=O)[C@@]1(C)CC[C@H]2[C@@H](CC=C3C[C@@H](OC(C)=O)CC[C@@]32C)[C@@H]1CC#N`, the inhibition at 30 µM at Aromatase [5] stood at 21%. For `C[C@H]1C2=CC(=O)CCC(C)(O2)[C@H]2CC[C@]3(C)C(=O)CC[C@H]3[C@H]12` (some centres undefined), on Aromatase [2], the IC50 was 9800 nM. `CCn1cc(C(=O)O)c(=O)c2ccc(-c3c[nH]nc3C)nc21`: the “inhibition (INH)” value at Aromatase [4] is “Not Active”. Take `CC1C(O)CC23COC(=O)C2=CCCC3C1(C)CCC1=CC(=O)OC1` (centres undefined): the IC50 at Aromatase [2] came out at 126000 nM. On to `CC1C2=CC(=O)CCC2(C)C2CCC3(C)C(=O)CCC3C12` (centres undefined), for which the IC50 on Aromatase [2] was 274 nM. The same molecule gave a Ki on Aromatase [3] of 266 nM. As to `CCCC(=O)Oc1cc(OC(=O)CCC)c2c(C)cc(=O)oc2c1`, the IC50 at Aromatase [2] was 176000 nM.

For `CC/C(=C1\C=CC(=O)S1)C(CC)c1ccc(OC(C)=O)cc1` (centres undefined), at Aromatase [2], the IC50 was 15500 nM. The same measure, in the same setting: as for `C[C@]12CCC(=O)C(O)=C1CC[C@@H]1[C@@H]2CC[C@]2(C)C(=O)CC[C@@H]12` [FORMESTANE], the figure is 92 nM.
